The subject of data set [1] is L929 cells. The data set is described as follows: Survival of L929 cells (MTT). Type of data set: cell-based. As to conditions: 500 μM, 72 hrs. The procedure:
Five thousand L929 cells were plated in completed DMEN and incubated until confluency for 3 days. Medium was removed and complete DMEM containing Prolin (20 μg/ml) and ascorbic acid (10 uM) was added. […], of medium was removed, […], MTT solution was added for 4 hrs, then 100 μl of DMSO was added, and absorbance of developed dark pink color was determined at […].

Data set [2] deals with Primary Mouse Lung Fibroblasts. Nature of the data set: TGF-β-induced soluble collagen ELISA. Type of data set: cell-based. To be noted: Fibroblast. The procedure: Approximately 5,000 primary mouse lung fibroblasts were plated in complete DMEM in 96 well plates and incubated for 3 days at which time the cultures achieved confluency. After cells reached to confluency, medium was removed and fresh DMEM supplemented with ascorbic acid (20 μg/ml) and prolin (10 μM) was added. […] One hour later, TGF-β (5 ng/ml) was added to the appropriate cultures at a final concentration. After 72 hours, 200 μl samples of the supernatant were placed onto an ELISA plate and incubated overnight. After blocking with %1 BSA for 2 h, plates were incubated with either an anti-collagen type I antibody or an anti-fibronectin antibody.
The plates were washed after 1 hour and incubated with secondary horseradish peroxidase-conjugated antibodies (anti-goat for the collagen antibody, anti-rabbit for the fibronectin antibody). After a series of washing steps the color reagent TMB (3,3′,5,5′-Tetramethylbenzidine) was added and 15 minutes later the reactions were terminated with equal volumes of 2 N H2SO4. The levels of soluble collagen and fibronectin were determined by evaluating absorbance at 450 nm.

The conditions of data set [3]: human, in vivo.
Procedure: All Part 1 cohorts will be dosed every 12 hours with food for 5 days.
During the treatment period (Day 1 through Day 5), subjects will be administered their assigned study medication BID, every 12 h±0.25 h (with approximately 240 mL of non-carbonated water), 30 minutes after the start of consumption of their standardised breakfast or dinner (12 h apart). A standardised lunch will be served >4 h post breakfast and >4 h prior to dinner. An evening snack will be served >3 h following evening study medication administration. No additional fluids will be allowed during the 1 h pre- and post-doses. On Day 6, subjects will replicate mealtimes as scheduled on Day 1-5. To ensure study drug dosing every 12 hours, here is an example of meal and dosing schedule in Part 1: • Breakfast: meal to be served 30 mins prior to AM dosing. Breakfast must be completed within 30 mins of start time. • Lunch: meal to be served at least 4 h post-AM study drug dose. • Dinner: meal to be served at least 11.5 h post-AM dose and served 30 minutes prior to PM study drug dose. • Evening snack: Snack to be served at least 15 h post-AM dose (at least 3 h post-PM dose).
In Part 1, blood samples (4 mL each) for PK will be collected for Cohorts 1, 2, 3, 4, and 6 at specified times (hours) at each as follows: • Day 1 and Day 5: 0 (pre-dose), 0.5, 1, 1.5, 2, 2.5, 3, 3.5, 4, 6, 8, 12 (pre-dose), 13, 14, 15, 16, 18 h • Day 2, Day 3 and Day 4: 0 (pre-morning-dose) and 12 h (pre-evening-dose) • Day 6: 12, 18, 24 and 36 h post-last dose • Day 7: 48 h (post-last dose)
Pharmacokinetics for Day 1 to 3 in Part 2 (fed state) will be compared to PK for Day 1 to Day 3 in Part 2 (fasted state). Plasma PK parameters (non-compartmental or compartmental analysis as appropriate) will include, but are not limited to: • Following single dose: Tmax, tlag, Cmax, AUC0-4, AUC0-last, AUC0-inf, lambda z, % AUCext, CL/F, Vz/F, Cmax/D, AUC0-last/D, AUC0-inf/D and MRT (D is dose) • After repeated doses: Ctrough, Ctrough/D • Following repeated doses on last day: Tmax, Cmax, Cavg, tlag, t1/2, AUC0-4, AUC0-last, AUC0-inf, lambda z, % AUCext, CLss/F, Vzss/F, MRT, PTF, Rac(AUC), Rac(Cmax), Cmax/D, AUClast/D, AUC0-inf/D and Rac (accumulation ratio) Part 3 (Patients with Secondary Lymphoedema Post-Axillary/Post-Sentinel Node Dissection)
Data set [4] concerns L929 cells. The data set is described as follows: TGF-induced collagen synthesis in L929 cells, 6-wells (SIRCOL). Type of data set: cell-based. As to conditions: 500 μM. The procedure:
100,000 L929 cells were plated in complete DMEN and incubated until confluency for 3 days. Medium was removed and complete DMEM containing Prolin (20 μg/ml) and ascorbic acid (10 μM) was added. […] Cells were further incubated for 72 hrs. Supernatant was removed, cells were washed with cold PBS, 1 ml SIRCOL reagent was added onto the cells and cells were scraped off, samples were shaken for 5 h. at RT, centrifuged at 10.000 rpm for 5 min, supernatant was removed, pellet was dissolved in 0.5 M acetic acid to remove unbound dye, and re-centrifuged at 10.000 rpm for 5 min, supernatant was removed and final pelet was dissolved in 1 ml 0.5M NaOH, shaken at RT for 5 h, 100 μl of resulted solution was placed in 96-well and O.D was determined at 600.

Data set [5] concerns Primary Mouse Lung Fibroblasts. The data set is described as follows: Survival / TGF-β-induced proliferation of Primary Mouse Lung Fibroblasts (MTT). It counts as cell-based. To be noted: 500 μM, 72 hrs. Here is the method: Primary Mouse lung fibroblast were prepared as follows. One lung was removed from 2 months old male BalbC Mouse, perfused with sterile PBS, minced and incubated in 2 ml of serum free Dulbecco's Modified Eagle's Medium (DMEM) containing 100 μg/ml of collagenase I for one hour at 37° C. Each sample was centrifuged at 1500 r.p.m (revolution per minute) for 5 minutes, washed three times with PBS and the final cellular pellet was resuspended in DMEM supplemented with 10% serum and Pen/Strep, and incubated in 150 mm plates at 37° C. with 80% humidity and […]. The growth medium was removed and fresh medium was added every day for 10 days.
At the end of 10-day incubation period above, lung fibroblasts were confluent. […] One hundred μL of the growth medium was removed and 20 μL of MTT stock solution (prepared in PBS at 5.5 mg/ml concentration) was added and cells were incubated for 4 hrs, then 100 μl of DMSO was added, and absorbance of developed color was monitored at 540-690 nm.

For data set [6], the system named is L929 cells. The data set is described as follows: TGF-induced soluble fibronectin synthesis in L929 cells (ELISA). It counts as cell-based. To be noted: 500 μM, in the absence and presence of TGF-β-induction. The text has this: Fibronectin is another important component of fibrotic lungs as it is induced by TGF-β and functions both as a structural component of extra cellular matrix as well as well as a ligand for integrin receptors. Just like soluble collagen, binding of fibronectin to integrin receptors induces the proliferation of fibroblast and epithelial cells of the lungs.
A general note: An ELISA detects its analyte on a solid surface through an enzyme-linked reagent.

Data set [7] concerns Primary Mouse Lung Fibroblasts. Nature of the data set: TGF-β-induced insoluble collagen synthesis, 96-well plate format (Sircol). It counts as cell-based. To be noted: 500 μM, TGF-β 5 ng/ml, 72 hours, FIG. 4C; p=0.0003. Here is the method:
Approximately 5,000 primary mouse fibroblasts were plated in complete DMEM in 96 well plates and incubated for 3 days at which time the cultures achieved confluency. After cells reached confluency, the medium was removed and fresh DMEM supplemented with ascorbic acid (20 μg/ml) and prolin (10 μMol) was added. […] One hour later, TGF-β was added to the appropriate cultures at a final concentration of 5 ng/ml. After 72 hours, the media was replaced with a 0.5% glutaraldehyde solution. After 30 minutes, the adherent cells were washed and subsequently incubated with acetic acid at a final concentration of 0.5M. After a 30 min room temperature incubation, and subsequent washing steps, the wells were incubated with Sircol reagent. After 5 hours, the unbound dye was removed and the plates were washed and allowed to dry. To extract collagen-bound Sircol, 100 μL of alkaline solution (0.5M NaOH) was added and plates were shaken for 1 h on rotary shaker at room temperature. Absorbance at 600 nm was determined to detect bound collagen.

The test system of data set [8] is L929 cells. Nature of the data set: TGF-induced soluble collagen synthesis in L929 cells (ELISA). Type of data set: cell-based. As to conditions: 500 μM. The procedure: Five thousand L929 cells were plated in complete DMEN and incubated until confluency for 3 days. Medium was removed and complete DMEM containing Prolin (20 μg/ml) and ascorbic acid (10 μM) was added. […] Cells were further incubated for 72 hrs. 200 μl supernatant of 96-well SIRCOL plate was placed onto ELISA plate and incubated 0/N. Next day, supernatant was removed and 100 ul of 1% BSA in PBST was added and incubated for 2 h at RT, BSA was removed, plate was washed 3× with 200 μl of PBST, and anti-collagen type I a.b was added at 1:2000 dilution (prepared in %1 BSA in PBST), incubated at RT for 1 h, primary a.b was removed, plate was washed 3× with 200 μl PBST, and secondary anti-goat HRP was added at 1:2000 dilution, incubate at RT for 1 h, removed, plate was washed 3× with 200 μl PBST and 100 μl of TMB solution was added for color development for 15 min, then 100 μl of 2 N H2SO4 was added to stop the reaction and O.D of developed yellow color was determined at 450 nm.

Data set [9] has as its system mouse tail model of lymphedema. The data set is described as follows: Mouse tail model of lymphedema. It counts as in vivo. As to conditions: once daily oral gavage, by 5 weeks; 7 animals per group.

Read-outs that look alike come from different tables or passages of the source.

For orientation: inhibition means the relative decrease from the control value, in per cent.

For `[2H]C([2H])([2H])c1ccc(=O)n(-c2ccccc2)c1` [LYT-100, 5-(methyl-d3)-1-phenylpyridin-2-(1H)-one], the “survival of L929 cells” value with L929 cells [1] was “does not affect survival”. For the same compound, the inhibition at 500 µM in data set [2] (TGF-β 5 ng/ml, 72 hours, p=0.0001, read-out: inhibition of TGF-β-dependent increase of soluble collagen) is 36%; in [2] (no TGF-β, p=0.0115, read-out: inhibition of background level of soluble collagen), 23%. Moreover, in [3], the “dose dependence of AUC96-108” value was “linear dose proportionality”. For the same compound, the “collagen synthesis in the absence of added TGF-β” value in the data set with L929 cells [4] is on record as “significantly inhibits”. Also, the TGF-induced collagen synthesis entry in the data set with L929 cells [4] (TGF-β 5 ng/ml, 72 hrs) is “inhibits”. The “survival of PMLF alone” value in data set [5] (without TGF-β) is “did not affect the survival”. Further, the “diminution of TGF-β-induced proliferation of PMLF” value in data set [5] (TGF-β 5 ng/ml, not statistically significant (p=0.19)) was 10%. Also, the soluble fibronectin levels result with L929 cells [6] is reported as “significantly reduced”. In addition, in [7], the “diminution of TGF-β-stimulated insoluble collagen accumulation” value turned out to be 24%. Besides, in the data set on L929 cells [8], the “soluble collagen levels in the absence of TGF-β-induction” value is reported as “significantly reduced”. For the same compound, in the data set with L929 cells [8] (TGF-β 5 ng/ml, 72 hrs), the “TGF-β-induced soluble collagen levels” value was “significantly inhibits”. The “tail swelling vs carboxymethylcellulose control” value in [9] is listed as “significantly reduced swelling”.

The record behind these values is patent US20230040415A1 (PureTech LYT 100, Inc., priority 2020, published 2023).
